From PubChem BioAssay (NCI) come the findings set out here.

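How tested: cells in 96-well plates exposed to compound for 48 hours at five concentrations. Here, GI50 denotes the concentration required for 50% inhibition of growth. TGI denotes the concentration required for complete inhibition of growth.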

What all share (assay): inhibition of tumour cell growth, NCI panel, 48 h
Assay [1] concerns MDA-MB-435.
Assay [2] concerns PC-3 prostate.
Assay [3] relates to SK-OV-3 ovarian.
The test system of assay [4] is MDA-MB-231 breast.
Assay [5] has as its system 786-0 renal.
Assay [6] has as its system HL-60(TB) leukemia.
Assay [7] relates to NCI-H226 lung.
In assay [8] the test system is HT29 colon.
Assay [9] deals with UACC-62 melanoma.
Assay [10] concerns OVCAR-8 ovarian.

Take `Clc1ccc(CSC(Cn2ccnc2)c2ccc(Cl)cc2Cl)cc1` (stereo not given): the GI50 is 1.71 µM in assay [1]; 1.21 µM in assay [2]; 1.7 µM in assay [3]; 1.51 µM in assay [4]; 1.61 µM in assay [5]; 2.15 µM in assay [6]. The GI50 in [7] was 1.38 µM; in assay [8], 1.44 µM; in assay [9], 1.17 µM; in assay [10], 1.6 µM. For the same compound, the TGI in assay [1] was found to be 3.33 µM; in assay [2] it was 3.61 µM; in assay [3], 3.91 µM; in [4] it was 2.98 µM; in assay [5], 3.13 µM; in assay [6], 4.54 µM. Also, the TGI in [7] came to 2.84 µM; in [8], 2.81 µM; in [9] it was 2.43 µM; in assay [10], 3.32 µM.

`CC1(C)N=C(N)N=C(N)N1c1cccc(CCCCc2cccc(S(=O)(=O)F)c2)c1`: the GI50 in assay [1] is 0.329 µM; in [2], 0.157 µM; in assay [3], 10.9 µM; in assay [4], 6.6 µM; in assay [5], 2.12 µM; in assay [6], 1.95 µM. Moreover, the GI50 was 8.93 µM in [7], 0.26 µM in assay [8], 0.281 µM in assay [9] and 4.84 µM in [10]. The TGI in [1] is 29 µM; in assay [2], over 100 µM; in assay [3] it was over 100 µM; in [4], over 100 µM; in assay [5], over 100 µM; in assay [6], 47.8 µM. Also, the TGI in [7] is over 100 µM; in assay [8], over 100 µM; in [9], 18 µM; in assay [10], over 100 µM.

For `Cn1cc(-c2ccc3c(Nc4cccc(NC(=O)Nc5cccc(F)c5)c4)ncnc3c2)cn1`, the GI50 was 1.49 µM in assay [1]; 2.78 µM in [2]; 0.61 µM in [3]; 2.88 µM in [4]; 1.87 µM in assay [5]; 5.9 µM in [6]. The GI50 in assay [7] is 12.1 µM; in assay [8] it was 1.97 µM; in assay [9] it was 3.21 µM; in [10], 2.25 µM. For the same compound, the TGI in assay [1] is 2.89 µM; in [2] it was 15.5 µM; in [3], 13.1 µM; in assay [4], 12.3 µM; in assay [5], 4.46 µM; in [6], 28 µM. Further, the TGI in assay [7] was 35.9 µM; in [8], 12.6 µM; in assay [9], 15 µM; in assay [10] it was over 100 µM.

As for `O=[N+]([O-])c1ccc(S(=O)(=O)Cc2ccccc2)c([N+](=O)[O-])c1`, the TGI in assay [1] stood at 3.34 µM; in [2], 3.45 µM; in [3], 13.2 µM; in assay [4] it was 5.99 µM; in assay [5], 2.98 µM; in assay [6] it was 4.03 µM. The TGI in assay [7] is 43.3 µM; in assay [8], 5.55 µM; in [9] it was 5.22 µM; in assay [10], 3.7 µM.

On to `CCSCC1CC(O)(c2ccccc2)C(c2ccccc2)C(c2ccc(Cl)cc2)O1` (stereo not given), for which the GI50 is 1.74 µM in [1]; 1.48 µM in [2]; 2.5 µM in assay [3]; 1.82 µM in assay [4]; 1.64 µM in [5]; 4.08 µM in assay [6]. The GI50 in [7] is 1.74 µM; in [8] it was 1.09 µM; in assay [9], 1.4 µM; in assay [10] it was 2.27 µM. Also, the TGI amounted to 3.84 µM in [1]; 4.86 µM in assay [2]; 7.33 µM in assay [3]; 4.41 µM in assay [4]; 3.26 µM in [5]; 8.28 µM in assay [6]. The TGI in assay [7] was 3.97 µM; in [8], 3.17 µM; in [9], 3.01 µM; in assay [10], 5.37 µM.

Regarding `COC(=O)[C@@]12C(=O)C=CC(=O)[C@@H]1C1C(=CC2COC(C)=O)O[C@@H]2OC3(CCCCC3)O[C@H]12` (stereo not given in full), the TGI in [1] is 29.8 µM; in assay [2], 25.3 µM; in assay [3], 30 µM; in assay [4], 39.9 µM; in [5] it was 18.7 µM; in [6], over 25.6 µM. Besides, the TGI was determined as 32.4 µM in assay [7], 19.3 µM in assay [8], 25.9 µM in [9] and 20 µM in assay [10].

With `CCNC(=O)[C@@H]1CCCN2C(=O)CC[C@H](NC(=O)[C@H](Cc3ccc(OP(=O)(O)O)cc3)NC(C)=O)C(=O)N12`, the GI50 in assay [1], in assay [2], in [3], in [4], in [5] and in assay [6] was over 25 µM in each case. In addition, the GI50 in assay [7], in assay [8], in assay [9] and in assay [10] was over 25 µM throughout. Also, the TGI in assay [1], in [2], in [3], in assay [4], in [5] and in assay [6] was over 25 µM in each case. The TGI in assay [7], in assay [8], in [9] and in assay [10] was over 25 µM throughout.
